Data taken from patent US8697081B2, “Method of modulating neovascularization” (The Regents of the University of Michigan, priority 2008, dated 2014).

Legend:
[1] = system: Human umbilical vein endothelial cells; experiment: Nuclear architecture (GFP-lamin A, emerin) and nuclear pore complex (NUP153) distribution; format: cell-based; settings: for nuclear architecture: 2-D conditions; for nuclear shape / redistribution of nuclear pore complexes: 3-D fibrin gel
Text: (§1) At sites of tissue damage, inflammation or neoplasia, fibrinogen is converted into a 3-D meshwork of fibrin fibrils that serve as a structural support for endothelial cells undergoing neovascularization (Chun et al. 2006. Cell, 125: 577-591; Hiraoka et al. 1998. Cell, 95: 365-377; Schafer and Werner. 2008. Nat. Rev. Mol. Cell Biol., 9: 628-638; Zhou et al. 2008. Genes Dev., 22: 1231-1243). This process can be recapitulated in vitro by embedding serum-supplemented human endothelial cells within a 3-D fibrin gel in the presence of the pro-angiogenic factors, VEGF and HGF. Human umbilical vein endothelial cells were isolated from umbilical cords by perfusion of the umbilical vein with type 3 collagenase (Worthington, Lakewood, N.J.) and cultured in Medium-199 (Invitrogen, Carlsbad, Calif.) with 20% human serum and 50 μg/ml endothelial cell growth supplement (ECGS; BD Biosciences, Franklin Lakes, N.J.). For 3-D culture, endothelial cells were suspended in a solution of thrombin and aprotinin (Sigma, St. Louis, Mo.) and mixed 1:1 with a solution of 6 mg/ml fibrinogen (Calbiochem, Gibbstown, N.J.). Vasculogenesis was triggered by treatment with 100 ng/ml VEGF, 50 ng/ml HGF (Genentech, San Francisco, Calif.). Fibronectin fibrillogenesis was tracked in 3-D by co-culture with human fibronectin (Sigma) labeled with Alexa-594 (Invitrogen).
As the 3-D-specific requirements for MT-MMPs and fibronectin matrix assembly correlate with changes in endothelial cell morphology, efforts were initiated to identify mechanistic routes whereby cell shape changes impact cell function. In particular, the impact of ECM remodeling on nuclear architecture was investigated. Nuclear architecture was tracked by either transfecting cells with a GFP-tagged form of the nuclear matrix filament, lamin A, or by immunostaining for the integral nuclear membrane protein, emerin (Dahl et al., 2008. Circ. Res., 102: 1307-1318; Glynn and Glover, 2005. Hum. Mol. Genet., 14: 2959-2969; Starr, 2009. J. Cell Sci., 122: 577-586; Stewart et al., 2007. Science, 318: 1408-1412). Under 2-D conditions, endothelial cell nuclei assumed an ellipsoid shape when cultured atop fibrin gels in the absence or presence of VEGF/HGF. In marked contrast, under 3-D conditions, endothelial cells cultured within fibrin gels in the absence of VEGF/HGF unexpectedly display a distorted morphology with multiple lamin A matrix and emerin infoldings and surface irregularities. Upon addition of VEGF/HGF, however, the nuclei of fibrin-embedded endothelial cells undergo a dramatic, and 3-D-specific, remodeling to assume a more classic, ovoid morphology. Three-dimensional reconstructions of DAPI-stained nuclei confirm that nuclear architecture transitions between multi-lobed and smooth elliptical shapes in the absence or presence, respectively, of VEGF/HGF.
Nuclear matrix architecture controls the distribution of the nuclear pore complexes that regulate the trafficking of protein and RNA across the nuclear envelope (Goldman et al., 2004. Proc. Natl. Acad. Sci. USA, 101: 8963-8968; Hawryluk-Gara et al., 2005. Mol. Biol. Cell, 16: 2382-2394; Liu et al., 2007. J. Cell. Biol., 178: 785-798). As such, the localization of nuclear pores was assessed in intact cells by monitoring the localization of the component protein, NUP153. In 3-D culture, unstimulated endothelial cells accumulate NUP153-containing pore complexes at nuclear membrane invaginations. In contrast, the nuclei of VEGF/HGF-stimulated endothelial cells display a uniform distribution of pore complexes in nuclear membranes.
To determine the roles of MMP-dependent proteolysis and fibronectin matrix assembly in mediating nuclear shape and nuclear pore complex changes, fibrin-embedded endothelial cells were stimulated with VEGF/HGF in the presence of FUD or GM6001. […]

[2] = system: Human umbilical vein endothelial cells; experiment: VEGF/HGF-triggered vasculogenesis in 3-D fibrin gel, or growth in 2-D culture; format: cell-based; settings: for growth of VEGF/HGF-stimulated endothelial cells: 2-D culture atop fibrin gels; for elongation, proliferation and neovessel formation: 3-D fibrin gel
Text: as §1
In the presence of VEGF and HGF, endothelial cells i) underwent marked changes in cell morphology from spherical to elongated, ii) mobilized proteinases which degrade the surrounding fibrin, iii) assembled a pericellular meshwork of fibronectin fibrils, and iv) initiated proliferative and tubulogenic responses that result in the formation of an anastomosing network of neovessels over a 6 day culture period (Hiraoka, supra; Saunders et al., 2006. J Cell Biol. 175: 179-191; Zhou et al., 2008. Proc. Natl. Acad. Sci. USA, 97: 4052-4057). […] Cell, 125: 757-767; Saunders et al., supra; Tomasini-Johansson et al., 2001. J. Biol. Chem., 276: 23430-23439; Zhou et al, supra). Endothelial cells cultured atop—rather than embedded within—fibrin gels (herein referred to as 2-D culture) display distinct growth requirements from those observed in 3-D culture.
Taken together, cytoskeletal reorganization and contractile tension may serve as the biomechanical effectors that transmit structural and mechanical cues from the pericellular ECM to the nuclear envelope. VEGF/HGF-stimulated endothelial cells were treated with either (a) blebbistatin to inhibit myosin ATPase function, or (b) nocodazole to prevent microtubule assembly under 3-D culture conditions (Salpingidou et al., 2007. J. Cell Biol., 178: 897-904; Zhou et al., supra).

[3] = 3-D culture, VEGF/HGF-stimulated, blebbistatin or nocodazole

CNC(=O)[C@H](Cc1c[nH]c2ccccc12)NC(=O)[C@@H](CC(=O)NO)CC(C)C [GM6001]
nuclear architecture [1]: unaffected
TUNEL staining with formation of multi-lobed nuclei ([1]; 3-D culture): does not correlate with increased TUNEL staining
nuclear shape ([1]; VEGF/HGF-stimulated): locked endothelial cell nuclei into the multi-lobular conformation
redistribution of nuclear pore complexes ([1]; VEGF/HGF-stimulated): completely failed to redistribute
growth of VEGF/HGF-stimulated endothelial cells [2]: neither GM6001 nor FUD affect the growth
elongation, proliferation and neovessel formation ([2]; VEGF/HGF-stimulated): failed to elongate, proliferate or form neovessels

Cc1ccc2c(c1)C(=O)C1(O)CCN(c3ccccc3)C1=N2 (centres unmarked) [blebbistatin]
nuclear shape and nuclear pore distribution [1, 3]: multi-lobed nuclei with perturbations in nuclear pore distribution
endothelial cell 3-D tubulogenesis [2, 3]: completely inhibit

FUD: 49-residue functional upstream domain of Streptococcus pyogenes F1 adhesion protein, SEQ ID NO: 10; fibronectin fibril assembly inhibitor (KDQSPLAGESGETEYITEVYGNQQNPVDIDKKLPNETGFSGNMVETEDT; Streptococcus pyogenes; Functional Upstream Domain (FUD) of F1 adhesion protein)
nuclear architecture [1]: unaffected
TUNEL staining with formation of multi-lobed nuclei ([1]; 3-D culture): does not correlate with increased TUNEL staining
nuclear shape ([1]; VEGF/HGF-stimulated): locked endothelial cell nuclei into the multi-lobular conformation
redistribution of nuclear pore complexes ([1]; VEGF/HGF-stimulated): completely failed to redistribute
growth of VEGF/HGF-stimulated endothelial cells [2]: neither GM6001 nor FUD affect the growth
elongation, proliferation and neovessel formation ([2]; VEGF/HGF-stimulated): failed to elongate, proliferate or form neovessels
